Each structure is given as a SMILES string.

Series [1] can be described thus: Contact angle with water (hydrophobicity). The series is classed as physicochemical. The note with it: 16 weeks at room temperature (20° C.) and at 40° C., against start value. On the procedure:
An advantageous property of the PGFEs for an additive in accordance with claim 1 which should be considered is the hydrophobicity, which can be determined by determining the contact angle. The determination of the hydrophobicity is carried out by determining the contact angle between the PGFE in the solid physical state and a droplet of purified water. According to Young's equation, cos θ=(γSV−γSL)/γLV, wherein γSL is the interfacial tension between the PGFE and water, γLV is the interfacial tension of the water droplet and γSV is the surface tension between the PGFE and the surrounding air. θ is the contact angle. Thus, the larger the contact angle θ, the higher is the surface tension between the PGFE and the water and the higher is the hydrophobicity of the PGFE under investigation. The contact angles for the proposed polyglycerol fatty acid esters also correlate with the HLB value which is often used in pharmaceutical technology, which is on a scale of 0 to 20 and provides information regarding the ratio of lipophilic to hydrophilic molecular fractions, wherein the hydrophilic fraction increases with increasing HLB value. […]

For series [2] the following is noted: Lopes et al., J. Pharm. Sci. 104: 4257-4265, 2015; cited from earlier work.

Consider `CCCCCCCCCCCCCCCCCC(=O)OCC(COC(=O)CCCCCCCCCCCCCCCCC)OC(=O)CCCCCCCCCCCCCCCCC` [glycerol tristearate], for which the “variation (deviation) of contact angle with water after 16 weeks” value in series [1] amounted to 40 °. For the same compound, the “increase in the crystal thickness after complete transformation of a- into b-modification” value in series [2] is “approximately 67%”.

The values above are taken from patent publication US20210361581A1, “ADDITIVE FOR A POWDER MATERIAL INTENDED FOR COMPACTION INTO SHAPED BODIES” (IOI OLEO GMBH, priority 2018, published 2021).
